# “Also recorded” adds a separate entry of the source. Read-outs that look alike come from different tables or passages of the source.
# Assays:
# [1] = tested on: J774.1 macrophages, healthy or infected with LTB0016, VE98MR or VE2000MM; test: Nitric oxide (NO) production, Griess reaction; format: cell-based, murine; conditions: non-infected and infected macrophages; 48 h; 18: 1 and 2 µM; 22: 2 and 4 µM
# Protocol: Following a previously described procedure, infected and uninfected macrophage cultures were treated with test compounds to analyze their effect in Leishmania host cell nitric oxide (NO) production. J774.1 macrophages, at the third day of growth, were collected and seeded in flat-bottom 96-well culture plates, at a density of 1 × 10^6 cells mL^−1 (2 × 10^5 macrophages/well), in 200 µL of RPMIc. The plates were incubated for 2 h; once the supernatant was discarded, the medium was replaced with 200 µL of RPMIc mixed with infectious promastigotes in the stationary phase of growth (1 × 10^7 parasites/mL, 2 × 10^6 parasites/well), so that the ratio macrophage: parasites was 1:10 [41]. The plates were then incubated for 4 h, the medium was replaced with fresh RPMIc and the test compounds were applied, according to the different treatment groups. The plates were kept in incubation for 48 h, at 37 °C and 5% CO2.
# From the culture supernatants, 50-µL aliquots were recovered and transferred to a new 96-well plate to perform the Griess reaction, 50 µL of Solution 1 [1% sulfanilamide dissolved in 2.5% phosphoric acid] was added, incubated for 5 min at RT and in the dark. […] Finally, the colorimetric reading was performed at 550 nm. […] Levels of NO2^− (expressed as µM of NO2^−) were calculated from a calibration curve constructed with increasing concentrations of sodium nitrite (NaNO2). […]
# [2] = tested on: VE2000MM intracellular amastigotes in J774.1 macrophages; test: Macrophage-amastigote model, patient isolate VE2000MM; format: cell-based, Leishmania amazonensis; conditions: for Regresion (GraphPad 6) of %Control vs dose (50% inhibitory concentration) / Growth (%) Exp1 %Control / Growth (%) Exp1 A/100MØ / Growth (%) Exp1 A/MØ / Growth (%) Exp1 Infección / Growth (%) Exp2 %Control / Growth (%) Exp2 A/100MØ / Growth (%) Exp2 A/MØ / Growth (%) Exp2 Infección / Growth (%) Exp3 %Control / Growth (%) Exp3 A/100MØ / Growth (%) Exp3 A/MØ / Growth (%) Exp3 Infección / Average A/100MØ: VE2000MM; for Regresion (GraphPad 6) of %Control vs dose (50% inhibitory concentration): unit from Dose head; for Average A/100MØ: average of Exp1-3
# Protocol: We used a previously described methodology, with some modifications. Macrophage monolayers, grown in RMPIc medium, for 3 days, were detached from the bottom of the culture chamber, by physical treatment (low temperature and light strokes). Obtained macrophages were seeded in flat-bottom 96-well culture plates, at a density of 2 × 10^5 cells mL^−1 (40,000 macrophages/well), in a final volume of 200 µL. Plates were incubated for 2 h, and the supernatant was discarded to remove non-adhered macrophages. Medium was replaced with stationary-phase promastigotes suspended in 200 µL of RPMIc (2 × 10^6 parasites mL^−1, 400,000 parasites/well), at a macrophage: parasite ratio 1:10 [40]. The plates were incubated for 4 h. Afterwards the medium was replaced with fresh RPMIc and increasing concentrations of compounds or drugs tested were applied, in volumes of 2 µL, according to the different treatment groups. Plates were kept for 72 h, at 37 °C and 5% CO2. The medium was discarded and the wells were washed twice with PBS. Next, a Giemsa staining was performed in situ. It consisted of adding 200 µL of methanol/well, incubating for 5 min, discarding the fixative, and letting it dry at room temperature. Later, the Giemsa solution (10% in PBS w/v, 200 µL/well) was added, incubated for 10 min, and washed with PBS, allowing it to dry. Finally, the bottom of the plates was detached by percussion and the circular bottoms (wells) were fixed to slides with Permount synthetic resin, for later evaluation (Alcazar W., manuscript in preparation). Cell counting was performed with a 100× immersion objective. A minimum of 200 random macrophages were examined. The percentage of infected macrophages (% infection) and the average number of amastigotes present in infected macrophages (amastigotes) were determined. […] The infection rate represents the number of intracellular amastigotes per 100 macrophages evaluated. Additionally, the GI50 for the decrease in the infection rate was calculated. At least three independent experiments were performed. The effect of amphotericin-B (AmB) [Sigma-Aldrich, (St. Louis, MO, USA)] was included as positive control of the assay.
smiles,measurement,setting,value
C=C(C)C1CCC2(C=NO)CCC3(C)C(CCC4C5(C)CCC(=NO)C(C)(C)C5CCC43C)C12 (centres unmarked) [Compound 18],Nitric oxide (NO) production by macrophages,[1],neither 18 nor 22 induced nitric oxide production in infected macrophages; also recorded: not capable of inducing NO production in any of the strains tested; also recorded: not capable of inducing NO production for any of the strains tested
same,SI (CC50/GI50) VE2000MM,"[2]; J774.1 CC50 / intracellular amastigote GI50, Table 2",66.79
same,GI50,"[2]; VE2000MM intracellular amastigotes, read-out: GI50 (µM) Experiment 1 Regresion",0.87 µM
same,GI50,"[2]; VE2000MM intracellular amastigotes, read-out: GI50 (µM) Experiment 2 Regresion",0.43 µM
same,GI50,"[2]; VE2000MM intracellular amastigotes, read-out: GI50 (µM) Experiment 3 Regresion",0.62 µM
same,Regresion (GraphPad 6) of %Control vs dose (50% inhibitory concentration),[2]; Exp1,0.87 µM
same,Regresion (GraphPad 6) of %Control vs dose (50% inhibitory concentration),[2]; Exp2,0.43 µM
same,Regresion (GraphPad 6) of %Control vs dose (50% inhibitory concentration),[2]; Exp3,0.62 µM
same,Growth (%) Exp1 %Control,"[2]; dose 0.10 µM, Exp1",85.88%
same,Growth (%) Exp1 A/100MØ,"[2]; dose 0.10 µM, Exp1",212.29
same,Growth (%) Exp1 A/MØ,"[2]; dose 0.10 µM, Exp1",3.35
same,Growth (%) Exp1 Infección,"[2]; dose 0.10 µM, Exp1",63.37%
same,Growth (%) Exp2 %Control,"[2]; dose 0.10 µM, Exp2",78.62%
same,Growth (%) Exp2 A/100MØ,"[2]; dose 0.10 µM, Exp2",190.11
same,Growth (%) Exp2 A/MØ,"[2]; dose 0.10 µM, Exp2",3.20
same,Growth (%) Exp2 Infección,"[2]; dose 0.10 µM, Exp2",59.41%
same,Growth (%) Exp3 %Control,"[2]; dose 0.10 µM, Exp3",72.17%
same,Growth (%) Exp3 A/100MØ,"[2]; dose 0.10 µM, Exp3",163.09
same,Growth (%) Exp3 A/MØ,"[2]; dose 0.10 µM, Exp3",3.10
same,Growth (%) Exp3 Infección,"[2]; dose 0.10 µM, Exp3",52.61%
same,Average A/100MØ,[2]; dose 0.10 µM,188.50
same,Growth (%) Exp1 %Control,"[2]; dose 0.50 µM, Exp1",66.72%
same,Growth (%) Exp1 A/100MØ,"[2]; dose 0.50 µM, Exp1",164.92
same,Growth (%) Exp1 A/MØ,"[2]; dose 0.50 µM, Exp1",2.90
same,Growth (%) Exp1 Infección,"[2]; dose 0.50 µM, Exp1",56.87%
same,Growth (%) Exp2 %Control,"[2]; dose 0.50 µM, Exp2",51.58%
same,Growth (%) Exp2 A/100MØ,"[2]; dose 0.50 µM, Exp2",124.74
same,Growth (%) Exp2 A/MØ,"[2]; dose 0.50 µM, Exp2",2.98
same,Growth (%) Exp2 Infección,"[2]; dose 0.50 µM, Exp2",41.86%
same,Growth (%) Exp3 %Control,"[2]; dose 0.50 µM, Exp3",54.73%
same,Growth (%) Exp3 A/100MØ,"[2]; dose 0.50 µM, Exp3",123.67
same,Growth (%) Exp3 A/MØ,"[2]; dose 0.50 µM, Exp3",3.24
same,Growth (%) Exp3 Infección,"[2]; dose 0.50 µM, Exp3",38.17%
same,Average A/100MØ,[2]; dose 0.50 µM,137.78
same,Growth (%) Exp1 %Control,"[2]; dose 1.00 µM, Exp1",45.38%
same,Growth (%) Exp1 A/100MØ,"[2]; dose 1.00 µM, Exp1",112.17
same,Growth (%) Exp1 A/MØ,"[2]; dose 1.00 µM, Exp1",2.76
same,Growth (%) Exp1 Infección,"[2]; dose 1.00 µM, Exp1",40.64%
same,Growth (%) Exp2 %Control,"[2]; dose 1.00 µM, Exp2",23.47%
same,Growth (%) Exp2 A/100MØ,"[2]; dose 1.00 µM, Exp2",56.76
same,Growth (%) Exp2 A/MØ,"[2]; dose 1.00 µM, Exp2",1.93
same,Growth (%) Exp2 Infección,"[2]; dose 1.00 µM, Exp2",29.41%
same,Growth (%) Exp3 %Control,"[2]; dose 1.00 µM, Exp3",44.34%
same,Growth (%) Exp3 A/100MØ,"[2]; dose 1.00 µM, Exp3",100.21
same,Growth (%) Exp3 A/MØ,"[2]; dose 1.00 µM, Exp3",2.85
same,Growth (%) Exp3 Infección,"[2]; dose 1.00 µM, Exp3",35.16%
same,Average A/100MØ,[2]; dose 1.00 µM,89.71
same,Growth (%) Exp1 %Control,"[2]; dose 5.00 µM, Exp1",12.40%
same,Growth (%) Exp1 A/100MØ,"[2]; dose 5.00 µM, Exp1",30.64
same,Growth (%) Exp1 A/MØ,"[2]; dose 5.00 µM, Exp1",1.33
same,Growth (%) Exp1 Infección,"[2]; dose 5.00 µM, Exp1",23.04%
same,Growth (%) Exp2 %Control,"[2]; dose 5.00 µM, Exp2",17.91%
same,Growth (%) Exp2 A/100MØ,"[2]; dose 5.00 µM, Exp2",43.32
same,Growth (%) Exp2 A/MØ,"[2]; dose 5.00 µM, Exp2",2.00
same,Growth (%) Exp2 Infección,"[2]; dose 5.00 µM, Exp2",21.66%
same,Growth (%) Exp3 %Control,"[2]; dose 5.00 µM, Exp3",26.77%
same,Growth (%) Exp3 A/100MØ,"[2]; dose 5.00 µM, Exp3",60.50
same,Growth (%) Exp3 A/MØ,"[2]; dose 5.00 µM, Exp3",2.96
same,Growth (%) Exp3 Infección,"[2]; dose 5.00 µM, Exp3",20.44%
same,Average A/100MØ,[2]; dose 5.00 µM,44.82
same,Growth (%) Exp1 %Control,"[2]; dose 10.00 µM, Exp1",11.00%
same,Growth (%) Exp1 A/100MØ,"[2]; dose 10.00 µM, Exp1",27.18
same,Growth (%) Exp1 A/MØ,"[2]; dose 10.00 µM, Exp1",1.50
same,Growth (%) Exp1 Infección,"[2]; dose 10.00 µM, Exp1",18.12%
same,Growth (%) Exp2 %Control,"[2]; dose 10.00 µM, Exp2",9.36%
same,Growth (%) Exp2 A/100MØ,"[2]; dose 10.00 µM, Exp2",22.64
same,Growth (%) Exp2 A/MØ,"[2]; dose 10.00 µM, Exp2",1.78
same,Growth (%) Exp2 Infección,"[2]; dose 10.00 µM, Exp2",12.72%
same,Growth (%) Exp3 %Control,"[2]; dose 10.00 µM, Exp3",7.87%
same,Growth (%) Exp3 A/100MØ,"[2]; dose 10.00 µM, Exp3",17.78
same,Growth (%) Exp3 A/MØ,"[2]; dose 10.00 µM, Exp3",1.69
same,Growth (%) Exp3 Infección,"[2]; dose 10.00 µM, Exp3",10.52%
same,Average A/100MØ,[2]; dose 10.00 µM,22.53
same,GI50,"[2]; intracellular amastigotes, Supplementary Materials II, read-out: GI50 (µM) VE2000MM, mean of three experiments",0.64 µM

# Source: publication PMC7913927, “Leishmanicidal Activity of Betulin Derivatives in Leishmania amazonensis; Effect on Plasma and Mitochondrial Membrane Potential, and Macrophage Nitric Oxide and Superoxide Production” (Microorganisms, 2021)
